Activity calls are given as the source filed them. No cut-off for these calls is given here.
Key:
Lymphocyte [1] = assay: Antioxidant activity in FRDA patient derived lymphocytes assessed as inhibition of DEM-mediated lipid peroxidation at 0.1 to 2.5 uM pretreated for 16 hrs followed by DEM addition measured after 120 mins by C11-BODIPY581/591 probe-based FACS analysis; assay type: functional, cell-based; details: Homo sapiens
[2] = Metabolic stability in bovine liver microsomes assessed as compound recovery at 25 uM after 30 mins in presence of beta-NADPH by HPLC method; assay type: ADME, Bos taurus, microsome; details: cattle, read-out: Drug recovery
Lymphocyte [3] = assay: Cytoprotective activity in DEM-treated FRDA patient derived lymphocytes assessed as preservation of mitochondrial inner membrane potential at 2.5 uM pretreated for 16 hrs followed by DEM addition measured after 120 mins by TMRM dye-based flow cytometric analysis; assay type: functional, cell-based; details: Homo sapiens
Lymphocyte [4] = assay: Antioxidant activity in FRDA patient derived lymphocytes assessed as inhibition of DEM-mediated reactive oxygen species formation at 0.1 to 2.5 uM pretreated for 16 hrs followed by DEM addition measured after 80 mins by DCFH-DA dye-based flow cytometric analysis; assay type: functional, cell-based; details: Homo sapiens
Lymphocyte [5] = assay: (§1) Cytoprotective activity against DEM-induced oxidative stress in FRDA patient derived lymphocytes assessed as increase in cell viability at 0.1 to 2.5 uM pretreated for 16 hrs followed by DEM addition measured after 6 hrs by calcein acetoxy-methyl-ester/ethidium homodimer-1 staining-based flow cytometric analysis; assay type: functional; details: Homo sapiens
Lymphocyte [6] = assay: Cytoprotective activity in FRDA patient derived lymphocytes cultured in glucose-free media supplemented with galactose assessed as total intracellular ATP levels at 5 uM after 48 hrs by luciferin-luciferase reaction-based bioluminescence assay relative to control; assay type: functional, Homo sapiens
Lymphocyte [7] = assay: Cytoprotective activity in FRDA patient derived lymphocytes cultured in glucose-free media supplemented with galactose assessed as total intracellular ATP levels at 25 uM after 48 hrs by luciferin-luciferase reaction-based bioluminescence assay relative to control; assay type: functional, Homo sapiens
Lymphocyte [8] = assay: Cytoprotective activity in DEM-treated FRDA patient derived lymphocytes assessed as preservation of mitochondrial inner membrane potential at 0.5 uM pretreated for 16 hrs followed by DEM addition measured after 120 mins by TMRM dye-based flow cytometric analysis; assay type: functional, cell-based; details: Homo sapiens
Lymphocyte [9] = assay: Cytoprotective activity in FRDA patient derived lymphocytes cultured in glucose-free media supplemented with galactose assessed as total intracellular ATP levels at 1 uM after 48 hrs by luciferin-luciferase reaction-based bioluminescence assay relative to control; assay type: functional, Homo sapiens
Lymphocyte [10] = assay: as §1, with “at” for “at 0.1 to”; assay type: functional; details: Homo sapiens
Lymphocyte [11] = assay: Antioxidant activity in FRDA patient derived lymphocytes assessed as inhibition of DEM-mediated lipid peroxidation at 0.1 to 0.5 uM pretreated for 16 hrs followed by DEM addition measured after 120 mins by C11-BODIPY581/591 probe-based FACS analysis; assay type: functional, cell-based; details: Homo sapiens
Lymphocyte [12] = assay: Antioxidant activity in FRDA patient derived lymphocytes assessed as inhibition of DEM-mediated reactive oxygen species formation at 2.5 uM pretreated for 16 hrs followed by DEM addition measured after 80 mins by DCFH-DA dye-based flow cytometric analysis; assay type: functional, cell-based; details: Homo sapiens

Question: Which inhibition (Lymphocyte [1]) does the source give for `Cc1nc(OC2CCC2)nc(N2CCC2)c1O` here?
Answer: inactive

Question: Which results are given for `CCCCCCCCCCCCCCCCc1nc(OC2CCC2)nc(OC2CCC2)c1O`?
Answer: remaining at 0.5 h, 25 µM [2]: 60%; inhibition (Lymphocyte [1]): inactive

Question: With `Cc1nc(N2CCC2)nc(N2CCC2)c1O` as the compound, how does the inhibition (Lymphocyte [1]) read?
Answer: inactive

Question: With `CCCCCCCCCCCCCCCCc1nc(N2CCC2)nc(OC2CCC2)c1O` as the compound, how does the Activity (Lymphocyte [3]) read?
Answer: Active

Question: What about the inhibition (Lymphocyte [4]) of the same compound?
Answer: Active

Question: What about the Activity (Lymphocyte [5]) of the same compound?
Answer: Active

Question: And the inhibition (Lymphocyte [1])?
Answer: Active

Question: What does the source list for `CCCCCCCCCCCCCCCCc1nc(OC2CCC2)nc(N2CCC2)c1O`?
Answer: remaining at 0.5 h, 25 µM [2]: 63%; Activity (Lymphocyte [3]): Active; inhibition (Lymphocyte [4]): Active; Activity (Lymphocyte [5]): Active; inhibition (Lymphocyte [1]): Active

Question: With `CCCCCCCCCCCCCCc1nc(OC2CCC2)nc(N2CCC2)c1O` as the compound, how does the remaining at 0.5 h, 25 µM [2] read?
Answer: 77%

Question: What about the Activity (Lymphocyte [3]) of the same compound?
Answer: Active

Question: And the inhibition (Lymphocyte [4])?
Answer: Active

Question: And the Activity (Lymphocyte [5])?
Answer: Active

Question: What about the inhibition (Lymphocyte [1]) of the same compound?
Answer: Active

Question: Which results are given for `CCCCCCCCCCCCCCCCc1nc(N2CCC2)nc(N2CCC2)c1O`?
Answer: remaining at 0.5 h, 25 µM [2]: 62%; Activity (Lymphocyte [3]): Active; Activity (Lymphocyte [5]): Active; inhibition (Lymphocyte [1]): inactive

Question: What does the source list for `COC1=C(OC)C(=O)C(CCCCCCCCCCO)=C(C)C1=O` [IDEBENONE]?
Answer: Activity (Lymphocyte [6]): 73%; Activity (Lymphocyte [7]): 3%; Activity (Lymphocyte [8]): Active; remaining at 0.5 h, 25 µM [2]: 61%; Activity (Lymphocyte [9]): 98%; Activity (Lymphocyte [3]): Active; inhibition (Lymphocyte [1]): Active

Question: For `CCCCCCCCCCCCCCc1nc(N2CCC2)nc(N2CCC2)c1O`, which remaining at 0.5 h, 25 µM [2] is on record?
Answer: 63%

Question: And the Activity (Lymphocyte [3])?
Answer: Active

Question: What about the Activity (Lymphocyte [5]) of the same compound?
Answer: Active

Question: What about the inhibition (Lymphocyte [1]) of the same compound?
Answer: inactive

Question: For `Cc1nc(OC2CCC2)nc(OC2CCC2)c1O`, which inhibition (Lymphocyte [1]) is on record?
Answer: inactive

Question: With `CCCCCCCCCCCCCCc1nc(OC2CCC2)nc(OC2CCC2)c1O` as the compound, how does the remaining at 0.5 h, 25 µM [2] read?
Answer: 72%

Question: And the Activity (Lymphocyte [3])?
Answer: Active

Question: What about the inhibition (Lymphocyte [1]) of the same compound?
Answer: Active

Question: What about the Activity (Lymphocyte [10]) of the same compound?
Answer: Active

Question: And the inhibition (Lymphocyte [11])?
Answer: inactive

Question: What about the inhibition (Lymphocyte [12]) of the same compound?
Answer: Active

Question: For `CCCCCCCCCCCCCCc1nc(N2CCC2)nc(OC2CCC2)c1O`, which remaining at 0.5 h, 25 µM [2] is on record?
Answer: 63%

Question: What about the Activity (Lymphocyte [3]) of the same compound?
Answer: Active

Question: And the inhibition (Lymphocyte [4])?
Answer: Active

Question: What about the Activity (Lymphocyte [5]) of the same compound?
Answer: Active

Question: What about the inhibition (Lymphocyte [1]) of the same compound?
Answer: Active

Question: With `Cc1nc(N2CCC2)nc(OC2CCC2)c1O` as the compound, how does the inhibition (Lymphocyte [1]) read?
Answer: inactive

— ChEMBL document CHEMBL3997815, “Influence of substituent heteroatoms on the cytoprotective properties of pyrimidinol antioxidants” (Bioorg Med Chem, 2017)
